Measured values as given in patent US3935229A, “Esters of 2-[(4-quinolyl)amino]-benzoic acids” (Synthelabo, priority 1973, dated 1976).
Where a name gives a salt, the structure may show the parent alone. Read-outs that look alike come from different tables or passages of the source.

What was measured:
[1] = test system: heated plate test, Swiss mice; experiment: Heated plate test (plate heated by acetone vapours; analgesic effects of the central type); details: oral
[2] = test system: mice of both sexes, of the Swiss strain; experiment: in vivo; details: mice, oral administration
Protocol: Tests were carried out on mice of both sexes, of the Swiss strain, of average weight 20 g. (± 2g.).

[3] = test system: carragenine-induced oedema of the paw, Sherman rats; experiment: Carragenine-induced oedema test (oedema of the paw); type: in vivo; details: Rattus norvegicus, read-out: Carragenine-induced oedema test AD (AD40 = 40% active dose)
[4] = test system: pain induced, in Swiss mice, by the intraperitoneal injection of phenylquinone; experiment: Siegmund test (analgesic effect against pain induced by intraperitoneal phenylquinone); type: in vivo; details: for ED50: Mus musculus; for analgesic effects of the peripheral type (Siegmund test), compared with amidopyrine and glafenine: oral, versus amidopyrine and glafenine
Text: 1. Effect against pain induced, in Swiss mice, by the intraperitoneal injection of phenylquinone, in accordance with the experimental procedure of Siegmund (Proc. Soc. Exp. Biol. Med., 1957, 95, 729), modified by Cheymol (C.R. Soc. Biol., 1963, 157, 521) and Brittain (Nature, London, 1963, […], 895).

[5] = po, read-out: Siegmund test AD50 (50% active dose), mice, oral administration

Compound	analgesic effects of the central type (heated plate test), compared with amidopyrine ([1]; versus amidopyrine)	Acute toxicity LD50 (50% lethal dose) [2]	ED40 ([3]; rats, oral administration) [mg/kg]	ED50 ([4]; mice, oral administration, read-out: Siegmund test AD50 (50% active dose)) [mg/kg]	analgesic effects of the peripheral type (Siegmund test), compared with amidopyrine and glafenine ([4]; mice)	extent of the greater activity than amidopyrine in the heated plate test ([1]; versus amidopyrine)	Acute toxicity LD50 (50% lethal dose) ([2]; dihydrochloride)	ED40 ([3]; po) [mg/kg]	ED50 [4, 5] [mg/kg]	central component of the analgesic effect (heated plate test) [1]
O=C(OCCN1CCN(c2cccc(C(F)(F)F)c2)CC1)c1ccccc1Nc1ccnc2cc(Cl)ccc12 [Compound 72-391, 2-(4'-m-Trifluoromethylphenyl-piperazino)-ethyl 2-(7'-chloro-4'-quinolyl-amino)-benzoate]	greater than that of amidopyrine	2,500 mg/kg	40	20	generally much more active	–	–	–	–	–
O=C(OCCN1CCN(c2cccc(C(F)(F)F)c2)CC1)c1ccccc1Nc1ccnc2cc(C(F)(F)F)ccc12 [Compound 73-017, 2-(4'-m-trifluoromethylphenyl-piperazino)-ethyl 2-(7'-trifluoromethyl-4'-quinolyl-amino)-benzoate dihydrochloride]	greater than that of amidopyrine	–	–	–	generally much more active	considerable	1,500 mg/kg	60	4	–
O=C(OCC(O)CO)c1ccccc1Nc1ccnc2cc(Cl)ccc12 (stereo not drawn) [Glafenine, reference compound]	–	3,500 mg/kg	–	–	–	–	–	30	50	much less strong
